Data from US11008572B2, “Methods and compositions for modulating splicing” (SKYHAWK THERAPEUTICS, INC., priority 2017, dated 2021).
Like-named read-outs stand apart in the source and are kept apart here.

Key:
[1] = system: FOXM1^A2 mRNA and FOXM1^BC mRNA; assay: Splicing assay (FOXM1), qPCR of isoform mRNAs; format: cell-based; conditions: for EC50: read-out: Splice EC50 (nM) FoxM1 A mRNA increase (exon excluded)
Method: Various cells lines were treated with the SMSMs described herein. RNA was then isolated, cDNA synthesized, qPCR performed and the levels of various mRNA targets of the SMSMs were determined. In some instances, RNA was isolated, cDNA synthesized, qPCR performed and the levels of mRNA isoforms in the various cell samples were determined.
On the day of the experiment, a 96-well plate was seeded with the cell lines of interest. The cells were diluted with full growth media to a concentration of 2.0×10^5 cells/mL and 100 μL of cells were added to each well (20,000 cells per well). The cells were treated with a compound immediately after plating.
The compounds were then added to the cell plate using the HP compound dispenser. In the initial experiment, a top concentration of 10 μM and an 8 point 4-fold dilution scheme was used. The stock compounds were made at a concentration of 5 mM, and the DMSO concentration was set to 0.2%. DMSO was used to normalize all the compound-containing wells and the untreated cells.
The treated cells were incubated at 37° C. in a 5% CO2 incubator for the desired amount of time. Plates were placed in a plastic bag with a wet paper towel to prevent evaporation.
RNA was isolated using the Cells to CT kit (ThermoFisher, AM1728). The cells were washed once with 100 μL cold PBS. 50 μL of lysis buffer was added to each well/tube (49.5 μL lysis buffer+0.5 μL DNase I per well/tube). The lysis reaction was mixed and incubated at room temperature for 5 minutes. 5 μL of stop solution was added directly into each cell lysis reaction and mixed by pipetting up and down 5 times. The plates/tubes were incubated at room temperature for 2 minutes then placed on ice if the cDNA synthesis was to be performed immediately. Otherwise, the plates/tubes were stored at −80° C. cDNA synthesis reactions were then performed. Reverse Transcription (RT) Master mix was prepared according to the table below.
40 μL RT master mix was added to PCR tubes or plate wells. 10 μL of RNA was added to each tube/well. The RT thermal cycler program was then run and tubes or plate wells were incubated at 37° C. for 1 hour, then at 95° C. for 5 minutes to deactivate the enzyme.
The qPCR was performed using a QuantStudio 6 instrument (ThermoFisher) and the following cycling conditions and according to the tables below. All samples and standards were analyzed in triplicate. Cycle 1: 2 minutes at 50° C. Cycle 2: 10 minutes at 95° C. Cycle 3 (repeat 40 times): 15 seconds at 95° C., 1 minute at 60° C.
The determined isoform 2and isoform 1quantities were then be used to determine the isoform 2: […] at the various compound concentrations. The PPIA quantities were used in the normalization to account of cell proliferation effects of the compounds.
The dilution necessary to make the top standard is calculated. A top concentration 200,000,000 copies/μL of the stock plasmid was prepared in TE buffer. A series of 10-fold dilutions, also in TE, were then made. A total of 5 μL of each standard was used in a qPCR well to generate samples containing 109 copies, […], 10^7copies, 10^6 copies, 10^5 copies, 10^4 copies, 10^3 copies, 10^2 copies, 10^1copies, and 0 copies.
An assay to measure the FOXM1^A2 mRNA and FOXM1^BC mRNA, or MADD^WT (isoform 4) mRNA and MADD^Ex16 (isoform 3) mRNA, or MAPTau^4R mRNA and MAPTau^3R mRNA simultaneously in cell wells was performed. The RNA values were measured relative to DMSO control and also included a housekeeping gene, PPIA to ensure data was consistent. The mRNA values were measured after 24 hours of incubation with the SMSM compounds.

A-673 cells = assay: Cell viability, crystal violet staining; format: cell-based; conditions: Homo sapiens, A673, cell viability, read-out: A-673 IC50 (nM) Cell viability
Procedure, shortened: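 Readout is absorbance at 570 nm of crystal violet, taken up in 0.1 M sodium citrate in 50% ethanol after staining with 0.5% dye in 25% methanol. Plates held 5×10^3 cells per well, and compounds were added one day after seeding for 72 hours. Data are relative to vehicle, mean±SE.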

[2] = FoxM1 BC mRNA decrease (exon included), read-out: Splice IC50 (nM) FoxM1 BC mRNA decrease (exon included)

| SMILES | IC50 (A-673 cells) [nM] | IC50 [1, 2] [nM] | EC50 [1] [nM] | other results |
| --- | --- | --- | --- | --- |
| CC1(C)CC(N(c2ccc(-c3ccc(-c4cn[nH]c4)cc3O)nn2)C2CC2)CC(C)(C)N1 [compound 129, 2-(6-(cyclopropyl(2,2,6,6-tetramethylpiperidin-4-yl)amino)pyridazin-3-yl)-5-(1H-pyrazol-4-yl)phenol] | 251 to 500 |  |  | IC50 ([1]; 24 h, LP-LoVo cells, 24 hours, table does not say EC50 or IC50, read-out: FOXM1): 1 to 10 nM; IC50 ([1]; 24 h, MDA-MB-231-luc cells, 24 hours, table does not say EC50 or IC50, read-out: FOXM1): < 1 nM; IC50 ([1]; Homo sapiens, A673, 24 h, A-673 cells, 24 hours, table does not say EC50 or IC50, read-out: FOXM1): < 1 nM; IC50 ([1]; Homo sapiens, A-375, 24 h, A-375 cells, 24 hours, table does not say EC50 or IC50, read-out: FOXM1): < 1 nM; IC50 ([1]; Homo sapiens, MDA-MB-157, 24 h, MDA-MB-157 cells, 24 hours, table does not say EC50 or IC50, read-out: FOXM1): < 1 nM; IC50 ([1]; Homo sapiens, SK-OV-3, 24 h, SKOV3 cells, 24 hours, table does not say EC50 or IC50, read-out: FOXM1): 1 to 10 nM; IC50 ([1]; Homo sapiens, Z-138, 24 h, Z-138 cells, 24 hours, table does not say EC50 or IC50, read-out: FOXM1): < 1 nM |
| CC1(C)CC(N(c2ccc(-c3ccc(-c4cn[nH]c4)cc3O)nn2)C2CCC2)CC(C)(C)N1 [compound 130, 2-(6-(cyclobutyl(2,2,6,6-tetramethylpiperidin-4-yl)amino)pyridazin-3-yl)-5-(1H-pyrazol-4-yl)phenol] | > 1000 | > 1000 | > 1000 |  |
| Oc1cc(-c2cn[nH]c2)ccc1-c1ccc(N2CCC3CNCCC32)nn1 (centres unmarked) [compound 131, 2-(6-(octahydro-1H-pyrrolo[3,2-c]pyridin-1-yl)pyridazin-3-yl)-5-(1H-pyrazol-4-yl)phenol] | > 1000 | 251 to 500 | 101 to 250 |  |
| COCCN(c1ccc(-c2ccc(-c3cn[nH]c3)cc2O)nn1)C1CC(C)(C)NC(C)(C)C1 [compound 133, 2-(6-((2-methoxyethyl)(2,2,6,6-tetramethylpiperidin-4-yl)amino)pyridazin-3-yl)-5-(1H-pyrazol-4-yl)phenol] | > 1000 | > 1000 | 501 to 1000 |  |
| CN(c1cnc(-c2ccc(-c3cn[nH]c3)cc2O)nc1)C1CC(C)(C)NC(C)(C)C1 [compound 134, 2-(5-(methyl(2,2,6,6-tetramethylpiperidin-4-yl)amino)pyrimidin-2-yl)-5-(1H-pyrazol-4-yl)phenol] | > 1000 | > 1000 | > 1000 |  |
| CN(c1ccc(-c2ccc(-c3cn[nH]c3)cc2O)nc1)C1CC(C)(C)NC(C)(C)C1 [compound 135, 2-(5-(methyl(2,2,6,6-tetramethylpiperidin-4-yl)amino)pyridin-2-yl)-5-(1H-pyrazol-4-yl)phenol] | > 1000 | > 1000 | > 1000 |  |
| CN(c1cnc(-c2ccc(-c3cn[nH]c3)cc2O)cn1)C1CC(C)(C)NC(C)(C)C1 [compound 136, 2-(5-(methyl(2,2,6,6-tetramethylpiperidin-4-yl)amino)pyrazin-2-yl)-5-(1H-pyrazol-4-yl)phenol] | 501 to 1000 | 251 to 500 | 101 to 250 |  |
| CN(c1ccc(-c2ccc(-c3cn[nH]c3)cc2O)nn1)[C@H]1[C@@H]2CNC[C@@H]21 [compound 137, 2-(6-(((1R,5S,6s)-3-azabicyclo[3.1.0]hexan-6-yl)(methyl)amino)pyridazin-3-yl)-5-(1H-pyrazol-4-yl)phenol] | > 1000 | > 1000 | > 1000 |  |
| CN(c1ccc(-c2ccc(-c3cn[nH]c3)cc2O)nn1)[C@H]1C[C@H]2CC[C@@H](C1)N2 [compound 139, 2-(6-(((1R,3r,5S)-8-azabicyclo[3.2.1]octan-3-yl)(methyl)amino)pyridazin-3-yl)-5-(1H-pyrazol-4-yl)phenol] | > 1000 | > 1000 | > 1000 |  |
| Oc1cc(-c2cn[nH]c2)ccc1-c1ccc(O[C@@H]2C[C@H]3CC[C@@H](C2)N3)nn1 [compound 140, 2-(6-(((1R,3s,5S)-8-azabicyclo[3.2.1]octan-3-yl)oxy)pyridazin-3-yl)-5-(1H-pyrazol-4-yl)phenol] | 101 to 250 | 10 to 100 | 10 to 100 |  |
| Oc1cc(-c2cn[nH]c2)ccc1-c1ccc(O[C@H]2C[C@H]3CC[C@@H](C2)N3)nn1 [compound 141, 2-(6-(((1R,3r,5S)-8-azabicyclo[3.2.1]octan-3-yl)oxy)pyridazin-3-yl)-5-(1H-pyrazol-4-yl)phenol] | > 1000 | > 1000 | > 1000 |  |
| CN(c1ccc(-c2ccc(-c3cn[nH]c3)cc2O)nn1)[C@H]1C[C@H]2CNC[C@H]2C1 [compound 142, 2-(6-(methyl((3R,5r,6S)-octahydrocyclopenta[c]pyrrol-5-yl)amino)pyridazin-3-yl)-5-(1H-pyrazol-4-yl)phenol] | > 1000 | 501 to 1000 | 251 to 500 |  |
| CN(c1ccc(-c2ccc(-c3cn[nH]c3)cc2O)nn1)[C@@H]1C[C@H]2CNC[C@H]2C1 [compound 143, 2-(6-(methyl((3R,5s,6S)-octahydrocyclopenta[c]pyrrol-5-yl)amino)pyridazin-3-yl)-5-(1H-pyrazol-4-yl)phenol] | > 1000 | 501 to 1000 | 251 to 500 |  |
| CN(c1ccc(-c2ccc(-c3cn[nH]c3)cc2O)nn1)[C@@H]1[C@@H]2CC[C@H]1CNC2 [compound 144, 2-(6-(((1R,5S,8s)-3-azabicyclo[3.2.1]octan-8-yl)(methyl)amino)pyridazin-3-yl)-5-(1H-pyrazol-4-yl)phenol] | 501 to 1000 | > 1000 | > 1000 |  |
| CN(c1ccc(-c2ccc(-c3cn[nH]c3)cc2O)nn1)[C@H]1[C@@H]2CC[C@H]1CNC2 [compound 145, 2-(6-(((1R,5S,8r)-3-azabicyclo[3.2.1]octan-8-yl)(methyl)amino)pyridazin-3-yl)-5-(1H-pyrazol-4-yl)phenol] | > 1000 | > 1000 | > 1000 |  |
| CN(c1ccc(-c2ccc(-c3cn[nH]c3)cc2O)nn1)[C@H]1C[C@H]2C[C@@H]1CN2 [compound 146, 2-(6-(((1R,4R,5S)-2-azabicyclo[2.2.1]heptan-5-yl)(methyl)amino)pyridazin-3-yl)-5-(1H-pyrazol-4-yl)phenol] | > 1000 | 251 to 500 | 101 to 250 |  |
| CN(c1ccc(-c2ccc(-c3cn[nH]c3)cc2O)nn1)[C@@H]1C[C@@H]2C[C@H]1CN2 [compound 147, 2-(6-(((1S,4S,5R)-2-azabicyclo[2.2.1]heptan-5-yl)(methyl)amino)pyridazin-3-yl)-5-(1H-pyrazol-4-yl)phenol] | > 1000 | 251 to 500 | 101 to 250 |  |
| CN(c1ccc(-c2ccc(-c3cn[nH]c3)cc2O)nn1)[C@@H]1C[C@H]2C[C@@H]1CN2 [compound 148, 2-(6-(((1R,4R,5R)-2-azabicyclo[2.2.1]heptan-5-yl)(methyl)amino)pyridazin-3-yl)-5-(1H-pyrazol-4-yl)phenol] | > 1000 | > 1000 | > 1000 |  |
| CN(c1ccc(-c2ccc(-c3cn[nH]c3)cc2O)nn1)[C@H]1C[C@@H]2C[C@H]1CN2 [compound 149, 2-(6-(((1S,4S,5S)-2-azabicyclo[2.2.1]heptan-5-yl)(methyl)amino)pyridazin-3-yl)-5-(1H-pyrazol-4-yl)phenol] | > 1000 | > 1000 | 251 to 500 |  |
